ChEMBL document CHEMBL3856191, “Structural modifications at the 6-position of thieno[2,3-d]pyrimidines and their effects on potency at FLT3 for treatment of acute myeloid leukemia” (Eur J Med Chem, 2016)

How the values were obtained:
[1] = molecular target: T1, Receptor-type tyrosine-protein kinase FLT3 (Homo sapiens, UniProt P36888); experiment: biochemical; type: cell-based, Sf21
T1 sequence (P36888 whole entry): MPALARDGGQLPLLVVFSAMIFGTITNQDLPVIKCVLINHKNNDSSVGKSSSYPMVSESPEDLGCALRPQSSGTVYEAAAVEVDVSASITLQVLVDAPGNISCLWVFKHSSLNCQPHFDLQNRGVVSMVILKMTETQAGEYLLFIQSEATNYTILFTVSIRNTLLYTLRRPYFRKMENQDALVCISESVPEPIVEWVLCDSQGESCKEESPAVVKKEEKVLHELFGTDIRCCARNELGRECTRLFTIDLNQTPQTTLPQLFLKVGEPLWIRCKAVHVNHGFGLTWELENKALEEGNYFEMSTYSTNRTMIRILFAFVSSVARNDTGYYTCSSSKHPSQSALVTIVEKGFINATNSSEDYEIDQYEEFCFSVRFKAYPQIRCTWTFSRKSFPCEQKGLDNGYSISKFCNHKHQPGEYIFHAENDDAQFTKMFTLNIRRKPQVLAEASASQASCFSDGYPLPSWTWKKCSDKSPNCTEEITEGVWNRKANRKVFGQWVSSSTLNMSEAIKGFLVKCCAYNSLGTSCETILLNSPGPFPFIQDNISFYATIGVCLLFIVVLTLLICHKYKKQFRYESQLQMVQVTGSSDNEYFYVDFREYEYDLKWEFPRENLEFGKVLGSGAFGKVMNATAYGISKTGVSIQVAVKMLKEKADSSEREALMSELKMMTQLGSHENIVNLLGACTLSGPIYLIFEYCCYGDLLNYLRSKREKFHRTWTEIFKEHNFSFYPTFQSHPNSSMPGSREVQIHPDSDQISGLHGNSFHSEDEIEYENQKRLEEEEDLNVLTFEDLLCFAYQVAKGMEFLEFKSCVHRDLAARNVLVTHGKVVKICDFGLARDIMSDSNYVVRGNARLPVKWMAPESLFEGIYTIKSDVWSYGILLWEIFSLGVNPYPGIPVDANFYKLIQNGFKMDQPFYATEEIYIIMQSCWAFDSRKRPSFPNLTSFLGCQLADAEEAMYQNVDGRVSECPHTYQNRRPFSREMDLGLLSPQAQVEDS
Description: Inhibition of recombinant human FLT3 expressed in insect Sf21 cells preincubated for 15 mins followed by poly(Glu:Tyr) substrate addition for 30 mins in presence of [gamma-32P]ATP by TR-FRET assay

[2] = molecular target: Receptor-type tyrosine-protein kinase FLT3 (Homo sapiens, UniProt P36888, D835Y)
Description: Inhibition of human FLT3 D835Y mutant preincubated for 15 mins followed by poly(Glu:Tyr) substrate addition for 30 mins in presence of [gamma-32P]ATP by TR-FRET assay

[3] = Metabolic stability in human liver microsomes assessed as compound remaining at 1 uM after 30 mins in presence of NADPH by HPLC-MS analysis; type: ADME; conditions: read-out: Stability
[4] = Metabolic stability in rat liver microsomes assessed as compound remaining at 1 uM after 30 mins in presence of NADPH by HPLC-MS analysis; type: ADME; conditions: for remaining at 0.5 h, 1 µM: liver microsomes, read-out: Stability
[5] = molecular target: Tyrosine-protein kinase ABL1 (Homo sapiens, UniProt P00519); experiment: Inhibition of recombinant human ABL1 expressed in insect cells assessed as remaining activity at 10 uM preincubated for 15 mins followed by poly(Glu:Tyr) substrate addition for 30 mins in presence of [gamma-32P]ATP by […] assay
Angiopoietin-1 receptor = Angiopoietin-1 receptor (Homo sapiens, UniProt Q02763); experiment: Inhibition of human TIE2 assessed as remaining activity at 10 uM preincubated for 15 mins followed by substrate addition measured after 30 mins in presence of [gamma-32P]ATP by […] assay
cells [6] = conditions: Homo sapiens, K562, 48 h
Description: Growth inhibition of human K562 cells after 48 hrs by XTT assay

cells [7] = conditions: Homo sapiens, THP-1, 48 h
Description: Growth inhibition of human THP1 cells expressing wild type FLT-3 after 48 hrs by XTT assay

cells [8] = conditions: Homo sapiens, HL-60, 48 h
Description: Growth inhibition of human HL60 cells expressing wild type FLT-3 after 48 hrs by XTT assay

cells [9] = conditions: Homo sapiens, MV4-11, 48 h
Description: Growth inhibition of human MV4-11 cells expressing FLT3-ITD after 48 hrs by XTT assay

Angiopoietin-1 receptor, sequence (Q02763 whole entry): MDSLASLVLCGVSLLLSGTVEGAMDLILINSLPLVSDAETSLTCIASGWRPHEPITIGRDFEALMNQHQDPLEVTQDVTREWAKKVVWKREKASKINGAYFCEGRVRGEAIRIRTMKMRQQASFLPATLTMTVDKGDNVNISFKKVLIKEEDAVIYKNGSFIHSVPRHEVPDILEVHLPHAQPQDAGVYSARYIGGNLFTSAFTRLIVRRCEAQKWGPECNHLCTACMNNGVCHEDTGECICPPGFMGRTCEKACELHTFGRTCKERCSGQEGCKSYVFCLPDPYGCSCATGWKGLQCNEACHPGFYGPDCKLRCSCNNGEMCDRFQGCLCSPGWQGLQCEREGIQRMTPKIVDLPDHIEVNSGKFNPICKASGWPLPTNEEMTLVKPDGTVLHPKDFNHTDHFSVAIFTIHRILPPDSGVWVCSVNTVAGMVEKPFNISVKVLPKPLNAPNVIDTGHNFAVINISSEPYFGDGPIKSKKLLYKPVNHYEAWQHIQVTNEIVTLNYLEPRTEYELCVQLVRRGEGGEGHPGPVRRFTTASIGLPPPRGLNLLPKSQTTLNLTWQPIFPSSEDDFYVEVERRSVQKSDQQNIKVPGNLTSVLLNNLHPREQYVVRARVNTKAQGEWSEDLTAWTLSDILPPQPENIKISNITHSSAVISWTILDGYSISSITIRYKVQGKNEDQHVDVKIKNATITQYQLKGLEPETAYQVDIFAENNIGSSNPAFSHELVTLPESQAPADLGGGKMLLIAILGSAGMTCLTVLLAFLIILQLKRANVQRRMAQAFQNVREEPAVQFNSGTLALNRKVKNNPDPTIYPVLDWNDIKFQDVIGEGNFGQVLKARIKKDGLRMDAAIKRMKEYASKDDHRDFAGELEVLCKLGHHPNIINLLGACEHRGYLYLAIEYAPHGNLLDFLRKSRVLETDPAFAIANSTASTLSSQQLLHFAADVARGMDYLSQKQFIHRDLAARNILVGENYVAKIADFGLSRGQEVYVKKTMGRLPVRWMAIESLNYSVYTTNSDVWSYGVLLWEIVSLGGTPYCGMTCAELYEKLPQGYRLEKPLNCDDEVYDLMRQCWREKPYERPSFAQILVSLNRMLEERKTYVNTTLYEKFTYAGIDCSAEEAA
Tyrosine-protein kinase ABL1, sequence (P00519 whole entry): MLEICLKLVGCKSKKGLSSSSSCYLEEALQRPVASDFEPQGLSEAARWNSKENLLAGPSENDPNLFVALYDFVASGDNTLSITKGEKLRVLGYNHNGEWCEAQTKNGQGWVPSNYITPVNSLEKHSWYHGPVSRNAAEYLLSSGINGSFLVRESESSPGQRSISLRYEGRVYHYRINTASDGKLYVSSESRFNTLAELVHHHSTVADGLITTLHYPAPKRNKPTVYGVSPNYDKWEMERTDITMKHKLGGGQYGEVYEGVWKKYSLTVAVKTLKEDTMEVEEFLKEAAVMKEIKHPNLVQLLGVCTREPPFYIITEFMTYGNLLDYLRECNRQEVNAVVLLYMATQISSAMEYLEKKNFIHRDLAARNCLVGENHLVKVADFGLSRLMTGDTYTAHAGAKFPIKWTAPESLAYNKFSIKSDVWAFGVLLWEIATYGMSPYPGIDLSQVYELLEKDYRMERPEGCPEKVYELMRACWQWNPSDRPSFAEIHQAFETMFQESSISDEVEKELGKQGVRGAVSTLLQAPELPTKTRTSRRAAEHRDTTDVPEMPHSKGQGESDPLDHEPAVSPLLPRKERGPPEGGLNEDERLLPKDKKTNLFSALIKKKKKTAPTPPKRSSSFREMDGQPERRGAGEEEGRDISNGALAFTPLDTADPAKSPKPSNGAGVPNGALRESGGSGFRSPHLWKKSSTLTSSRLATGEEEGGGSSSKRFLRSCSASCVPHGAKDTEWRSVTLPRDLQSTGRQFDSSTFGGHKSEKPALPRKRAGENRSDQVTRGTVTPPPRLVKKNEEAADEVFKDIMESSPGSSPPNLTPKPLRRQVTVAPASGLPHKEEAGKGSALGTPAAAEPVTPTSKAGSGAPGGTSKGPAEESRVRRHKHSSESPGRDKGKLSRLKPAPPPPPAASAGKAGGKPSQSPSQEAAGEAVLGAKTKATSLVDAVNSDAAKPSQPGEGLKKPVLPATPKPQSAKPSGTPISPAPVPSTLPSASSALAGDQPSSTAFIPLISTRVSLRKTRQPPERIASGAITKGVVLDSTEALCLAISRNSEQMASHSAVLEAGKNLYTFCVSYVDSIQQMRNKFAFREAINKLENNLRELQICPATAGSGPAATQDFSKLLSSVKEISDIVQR

| SMILES | IC50 [1] | IC50 [2] | remaining at 0.5 h, 1 µM [3] | remaining at 0.5 h, 1 µM [4] | Activity [5] | Activity (Angiopoietin-1 receptor) | GI50 (cells [6]) | GI50 (cells [7]) | GI50 (cells [8]) | GI50 (cells [9]) | Stability ([4]; microsomes, 0.5 h, 1 µM) |
| --- | --- | --- | --- | --- | --- | --- | --- | --- | --- | --- | --- |
| CC1=CC(=O)N(Nc2nc(-c3cccs3)nc3sc(-c4ccc(OC5CCNC5)cc4)c(C)c23)C1=O (stereo not given) | 3.77 nM | 29.3 nM | 50.8% | 34.2% | 26% | 25% | 315 nM | 227 nM | 214 nM | 366 nM | – |
| CC1=CC(=O)N(Nc2nc(-c3cccs3)nc3sc(-c4ccc(OCCNCCC#N)cc4)c(C)c23)C1=O | 191 nM | 29.4 nM | 52% | 32.1% | – | – | – | – | – | – | – |
| CC1=CC(=O)N(Nc2nc(-c3cccs3)nc3sc(CO)c(C)c23)C1=O | – | – | 24.6% | 20.4% | – | – | – | – | – | – | – |
| CC1=CC(=O)N(Nc2nc(-c3cccs3)nc3sc(-c4ccc(OCCNCc5ccccc5)cc4)c(C)c23)C1=O | 71.9 nM | 9.48 nM | 86.2% | 30.4% | – | – | – | – | – | – | – |
| CC1=CC(=O)N(Nc2nc(-c3cccs3)nc3sc(-c4ccc(OCC5CCCO5)cc4)c(C)c23)C1=O (stereo not given) | – | – | 41.7% | 41% | – | – | – | – | – | – | – |
| CC1=CC(=O)N(Nc2nc(-c3cccs3)nc3sc(C)c(C)c23)C1=O | 11.4 nM | 13.7 nM | 32.4% | 22.7% | 29% | 32% | 105 nM | 222 nM | 127 nM | 191 nM | – |
| CC1=CC(=O)N(Nc2nc(-c3cccs3)nc3sc(-c4ccc(OC5CCNCC5)cc4)c(C)c23)C1=O | 31.4 nM | 27.2 nM | 52.4% | 47.8% | – | – | 425 nM | 460 nM | 377 nM | 580 nM | – |
| CC1=CC(=O)N(Nc2nc(-c3cccs3)nc3sc(-c4ccc(OCCNCCO)cc4)c(C)c23)C1=O.Cl | 5.31 nM | 0.334 nM | 91.3% | – | – | – | 1410 nM | 843 nM | 1340 nM | 1130 nM | Nd(Unstable) |
| CC1=CC(=O)N(Nc2nc(-c3cccs3)nc3sc(-c4ccc(OCCNCC(C)C)cc4)c(C)c23)C1=O | 2.5 nM | 35.9 nM | 66.2% | 39.7% | – | – | 489 nM | 449 nM | 598 nM | 278 nM | – |
| CC1=CC(=O)N(Nc2nc(-c3cccs3)nc3sc(-c4ccc(OCc5ccc(F)cc5)cc4)c(C)c23)C1=O | – | – | 66.9% | 35.6% | – | – | – | – | – | – | – |
| COc1ccc(-c2cc3c(NN4C(=O)C=C(C)C4=O)nc(-c4cccs4)nc3s2)cc1 | 68.6 nM | 47.1 nM | – | – | – | – | 1090 nM | 1270 nM | 682 nM | 1700 nM | – |
| CC1=CC(=O)N(Nc2nc(-c3cccs3)nc3sc(C#N)c(C)c23)C1=O | 118 nM | 75 nM | 52.7% | 26.1% | – | – | – | – | – | – | – |
| CC1=CC(=O)N(Nc2nc(-c3cccs3)nc3sc(-c4ccc(OCCN5CCCC5)cc4)c(C)c23)C1=O | 6.43 nM | 16.5 nM | 72.7% | 41.5% | – | – | 1040 nM | 636 nM | 1260 nM | 585 nM | – |
| CC1=CC(=O)N(Nc2nc(-c3cccs3)nc3sc(-c4ccc(F)cc4)c(C)c23)C1=O | – | – | 39.5% | 54.5% | – | – | – | – | – | – | – |
| CC1=CC(=O)N(Nc2nc(-c3cccs3)nc3sc(-c4ccc(O)cc4)c(C)c23)C1=O | – | – | 71.8% | 28.8% | – | – | – | – | – | – | – |
| CC1=CC(=O)N(Nc2nc(-c3cccs3)nc3sc(-c4ccc(F)cc4)cc23)C1=O | 124 nM | 54.4 nM | 61% | 26.9% | – | – | – | – | – | – | – |
| CC1=CC(=O)N(Nc2nc(-c3cccs3)nc3sc(-c4ccc(O)cc4)cc23)C1=O | 75.5 nM | 78.7 nM | 74.1% | 28.2% | – | – | 506 nM | 765 nM | 336 nM | 927 nM | – |
| CC1=CC(=O)N(Nc2nc(-c3cccs3)nc3sc(C)cc23)C1=O | 16.8 nM | 14.7 nM | 58.8% | 32.6% | – | – | 1000 nM | 1240 nM | 422 nM | 1060 nM | – |
